Results: patent US8431593B2, “Heteroaryl amide derivatives” (H. Lundbeck A/S, priority 2006, dated 2013)
Where two headings read alike, the source gives them in different places. One block for each compound: values may come before it.

Target: T1, P2X7 receptor (Homo sapiens, UniProt Q99572)
T1 construct: host or cells: SH-SY5Y
T1 sequence (Q99572 1-595): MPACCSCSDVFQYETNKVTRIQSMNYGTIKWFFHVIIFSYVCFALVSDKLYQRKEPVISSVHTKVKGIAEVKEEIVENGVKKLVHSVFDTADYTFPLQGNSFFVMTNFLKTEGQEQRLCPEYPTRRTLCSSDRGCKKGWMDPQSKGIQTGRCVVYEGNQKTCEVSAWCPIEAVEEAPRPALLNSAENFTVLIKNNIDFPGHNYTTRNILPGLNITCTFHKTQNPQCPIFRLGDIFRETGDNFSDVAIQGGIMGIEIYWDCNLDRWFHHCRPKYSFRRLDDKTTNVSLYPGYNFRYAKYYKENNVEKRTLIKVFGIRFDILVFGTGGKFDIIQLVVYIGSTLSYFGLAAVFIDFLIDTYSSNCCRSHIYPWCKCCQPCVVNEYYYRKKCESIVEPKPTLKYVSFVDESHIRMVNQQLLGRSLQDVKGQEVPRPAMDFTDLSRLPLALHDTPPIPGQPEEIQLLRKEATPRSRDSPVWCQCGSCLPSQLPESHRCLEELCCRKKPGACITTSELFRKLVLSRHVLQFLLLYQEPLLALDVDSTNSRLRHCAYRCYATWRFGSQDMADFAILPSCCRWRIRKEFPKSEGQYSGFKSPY
Test: P2X7 calcium mobilization assay, high throughput, antagonist activity (Example 4A)
Assay type: cell-based
Method in brief: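 100,000 cells/well, plated day -1. Dye 1 h → rinse → compound 1 h, RT → FLIPR^TETRA Ca2+ mobilization. Max RFU minus mean negative control (no agonist); mean agonist-well max as positive control.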

[1] = 50% decrease in the fluorescence response of cells exposed to 80 μM of 2′(3′)-O-(4-benzoyl-benzoyl)adenosine 5′-triphosphate, Example 4A, read-out: IC50
[2] = 50% decrease in the fluorescence response of cells exposed to 80 μM of 2′(3′)-O-(4-benzoyl-benzoyl)adenosine 5′-triphosphate, determined as in Example 4A, read-out: IC50
[3] = fluorescence response of cells exposed to 80 μM 2′(3′)-O-(4-benzoyl-benzoyl)adenosine 5′-triphosphate, Example 4A, read-out: IC50
[4] = P2X7 calcium mobilization, Example 4A, 50% decrease in the fluorescence response of cells exposed to 80 μM of (2′(3′)-O-(4-benzoyl-benzoyl)adenosine 5′-triphosephate), read-out: IC50
[5] = SH-SY5Y cells, 50% decrease in fluorescence response to 80 μM BzATP, read-out: IC50

IC50 [1]: < 2 µM
Compound: Cc1cnc(CNC(=O)c2cn3c(C(=O)NCC45CC6CC(CC(C6)C4)C5)cccc3n2)cn1 [Compound 656, 5-N-(adamantan-1-ylmethyl)-2-N-[(5-methylpyrazin-2-yl)methyl]imidazo[1,2-a]pyridine-2,5-dicarboxamide]

IC50 [1]: < 2 µM
Compound: Cc1ccc(C(CNC(=O)c2cccc3nc(CN4CC[C@@H](NC(=O)OC(C)(C)C)C4)cn23)CC(C)C)cc1 (some centres unmarked) [Compound 765, tert-butyl {1-[(5-{[4-methyl-2-(4-methylphenyl)pentyl]carbamoyl}imidazo [1,2-a]pyridin-2-yl)methyl]pyrrolidin-3-yl}carbamate]

IC50 [2]: < 2 µM
Compound: COc1ccc(C2(CNC(=O)c3cccc4nc(CC(=O)N[C@@H]5CCN(C(=O)OC(C)(C)C)C5)cn34)CCCCC2)cc1 [Compound 950, tert-butyl (3R)-3-({[5-({[1-(4-methoxyphenyl)cyclohexyl]methyl}carbamoyl)imidazo [1,2-a]pyridin-2-yl]acetyl}amino) pyrrolidine-1-carboxylate]

IC50 [3]: < 2 µM
Compound: CCCN(CCC)C(=O)c1cn2c(NC(=O)CC34CC5CC(CC(C5)C3)C4)cccc2n1 [Compound 374, 5-[(adamantan-1-ylacetyl)amino]-N,N-dipropylimidazo[1,2-a]pyridine-2-carboxamide]

IC50 [4]: < 2 µM
Compound: O=C(NCC(c1ccc(Cl)cc1)N1CCOCC1)c1cccc2ncc(Cl)n12 (centres unmarked) [Compound 1055, 3-chloro-N-[2-(4-chlorophenyl)-2-morpholin-4-ylethyl]imidazo[1,2-a]pyridine-5-carboxamide]

Compound: CCOC(=O)Cc1cn2c(C(=O)NCC34CC5CC(CC(C5)C3)C4)cccc2n1 [Compound 4, ethyl {5-[(adamantan-1-ylmethyl)carbamoyl]imi-dazo[1,2-a]pyridin-2-yl}acetate]
IC50: < 2 µM

IC50 [5]: < 2 µM
Compound: NC(=O)CNC(=O)c1cn2c(C(=O)NCC34CC5CC(CC(C5)C3)C4)cccc2n1 [Compound 78, 5-N-(adamantan-1-ylmethyl)--(2-amino-2-oxoethyl)imidazo[1,2-a]pyridine-2,5-dicarboxamide]

IC50 (50% decrease in the fluorescence response of cells exposed to 80 μM 2′(3′)-O-(4-benzoyl-benzoyl)adenosine 5′-triphosphate, Example 4A, read-out: IC50): < 2 µM
Compound: CC1(C)[C@@H]2CC[C@@H](CNC(=O)c3cccc4nc(CC(=O)N5CCCCC5CN)cn34)[C@H]1C2 (stereo partly drawn) [Compound 579, 2-{2-[2-(aminomethyl)piperidin-1-yl]-2-oxoethyl}-N-{[(1R,2R,5R)-6,6-dimethylbicyclo[3.1.1]hept-2-yl]methyl}imidazo[1,2-a]pyridine-5-carboxamide]

IC50 [1]: < 2 µM
Compound: CC(CC#N)c1cn2c(C(=O)NCC34CC5CC(CC(C5)C3)C4)cccc2n1 (centres unmarked) [Compound 748, N-(adamantan-1-ylmethyl)-2-(2-cyano-1-methylethyl) imidazo[1,2-a]pyridine-5-carboxamide]

IC50 [3]: < 2 µM
Compound: COCCC1CCN(C(=O)c2cn3c(NC(=O)CC45CC6CC(CC(C6)C4)C5)cccc3n2)CC1 [Compound 389, 2-adamantan-1-yl-N-(2-{[4-(2-methoxyethyl)piperidin-1-yl]carbonyl}imidazo[1,2-a]pyridin-5-yl)acetamide]

IC50 [2]: < 2 µM
Compound: O=C(O)CCc1cn2c(C(=O)NCC3(c4ccc(Cl)cc4)CCCCC3)cccc2n1 [Compound 900, 3-[5-({[1-(4-chlorophenyl)cyclohexyl]methyl}carbamoyl)imidazo[1,2-a]pyridin-2-yl] propanoic acid]

IC50 [3]: < 2 µM
Compound: CC(C)CC(CNC(=O)c1cccc2nc(CC(=O)N3CCCC3)cn12)c1ccccc1 (centres unmarked) [Compound 242, N-(4-methyl-2-phenylpentyl)-2-(2-oxo-2-pyrrolidin-1-ylethyl)imidazo[1,2-a]pyridine-5-carboxamide]

IC50 [3]: < 2 µM
Compound: CCN(CCCO)C(=O)c1cn2c(NC(=O)CC34CC5CC(CC(C5)C3)C4)cccc2n1 [Compound 417, 5-[(adamantan-1-ylacetyl)amino]-N-ethyl-N-(3-hydroxypropyl) imidazo [1,2-a]pyridine-2-carboxamide]

IC50 [5]: < 2 µM
Compound: CCC(O)CNC(=O)c1cn2c(C(=O)NCC34CC5CC(CC(C5)C3)C4)cccc2n1 (centres unmarked) [Compound 83, 5-N-(adamantan-1-ylmethyl)--(2-hydroxy-butyl)imidazo[1,2-a]pyridine-2,5-dicarboxamide]

IC50 [3]: < 2 µM
Compound: N[C@@H]1CCN(Cc2cn3c(NC(=O)CC45CC6CC(CC(C6)C4)C5)cccc3n2)C1 [Compound 299, 2-adamantan-1-yl-N-(2-{[(3R)-3-aminopyrrolidin-1-yl]methyl}imidazo[1,2-a]pyridin-5-yl)acetamide]

IC50 [3]: < 2 µM
Compound: CC1(C)[C@H]2CC[C@@H](CNC(=O)c3cccc4nc(C(=O)N5CCCC(CN)C5)cn34)[C@@H]1C2 (stereo partly drawn) [Compound 322, 2-{[3-(aminomethyl)piperidin-1-yl]carbonyl}-N-{[(1S,2R,5S)-6,6-dimethylbicyclo[3.1.1]hept-2-yl]methyl}imidazo[1,2-a]pyridine-5-carboxamide]

IC50 [5]: < 2 µM
Compound: O=C(NCC12CC3CC(CC(C3)C1)C2)c1cccc2nc(CC(=O)N3CCCCC3)cn12 [Compound 181, N-(adamantan-1-ylmethyl)-2-(2-oxo-2-piperidin-1-ylethyl)imidazo[1,2-a]pyridine-5-carboxamide]

IC50 [5]: < 2 µM
Compound: CN(CCNS(C)(=O)=O)C(=O)c1cn2c(C(=O)NCC34CC5CC(CC(C5)C3)C4)cccc2n1 [Compound 98, 5-N-(adamantan-1-ylmethyl)--methyl--{2-[(methyl-sulfonyl)amino]eth-yl)imidazo[1,2-a]pyridine-2,5-dicarboxamide]

IC50 [1]: < 2 µM
Compound: NC1CC2CCC(C1)N2C(=O)c1cn2c(C(=O)NCC34CC5CC(CC(C5)C3)C4)cccc2n1 (centres unmarked) [Compound 640, N-(adamantan-1-ylmethyl)-2-[(3-amino-8-azabicyclo[3.2.1]oct-8-yl)carbonyl]imidazo[1,2-a]pyridine-5-carboxamide]

IC50 [3]: < 2 µM
Compound: NCCSCc1cn2c(C(=O)NCC34CC5CC(CC(C5)C3)C4)cccc2n1 [Compound 266, N-(adamantan-1-ylmethyl)-2-{[(2-aminoethyl)thio]methyl}imidazo[1,2-a]pyridine-5-carboxamide]

IC50 [4]: < 2 µM
Compound: CC(=O)c1cn2c(C(=O)NCC(CC(C)C)c3ccc(Cl)cc3)cccc2n1 (centres unmarked) [Compound 1032, 2-acetyl-N-[2-(4-chlorophenyl)-4-methylpentyl] imidazo[1,2-a] pyridine-5-carboxamlde]

IC50 [3]: < 2 µM
Compound: C[C@@H]1COC[C@H](C)N1Cc1cn2c(C(=O)NCC34CC5CC(CC(C5)C3)C4)cccc2n1 (relative stereo) [Compound 343, rel-N-(adamantan-l-ylmethy)-2-{[(3R, 5S)-3,5-dimethylmorpholin-4-yl]methyl}imidazo[1,2-a]pyridine-5-carboxamide]

IC50 [5]: < 2 µM
Compound: CC(C)CN(C)C(=O)Cc1cn2c(C(=O)NCC34CC5CC(CC(C5)C3)C4)cccc2n1 [Compound 173, N-(adamantan-1-ylmethyl)-2-{2-[isobutyl(methyl)amino]-2-oxoethyl}imidazo[1,2-a]pyridine-5-carboxamide]

IC50 [1]: < 2 µM
Compound: O=C(NCC12CC3CC(CC(C3)C1)C2)c1cccc2nc(C(=O)N3CCCN(C4CCC4)CC3)cn12 [Compound 714, N-(adamantan-1-ylmethyl)-2-[(4-cyclobutyl-1,4-diazepan-1-yl)carbonyl]imidazo[1,2-a]pyridine-5-carboxamide]

IC50 [3]: < 2 µM
Compound: COCC1CCCN(C(=O)Cc2cn3c(C(=O)NCC(CC(C)C)c4ccccc4)cccc3n2)C1 (centres unmarked) [Compound 240, 2-{2-[3-(methoxymethyl)piperidin-1-yl]-2-oxoethyl}-N-(4-methyl-2-phenylpentyl)imidazo [1,2-a]pyridine-5-carboxamide]

IC50 [1]: < 2 µM
Compound: CC(C)CC(CNC(=O)c1cccc2nc(CN3CC[C@@H](NC(=O)OC(C)(C)C)C3)cn12)c1ccc(C(F)(F)F)cc1 (some centres unmarked) [Compound 764, tert-butyl (1-{[5-({4-methyl-2-[4-(trifluoromethyl)phenyl]pentyl}carbamoyl)imidazo [1,2-a]pyridin-2-yl]methyl}pyrrolidin-3-yl)carbamate]

IC50 [2]: < 2 µM
Compound: CC1(C)C2CC[C@@H](CNC(=O)c3cccc4nc(C(F)(F)F)cn34)C1C2 (stereo partly drawn) [Compound 1016, N-{[(2R)-6,6-dimethylbicyclo [3.1.1]hept-2-yl]methyl}-2-(trifluoromethyl) imidazo [1,2-a]pyridine-5-carboxamide]

Compound: CN(C)CCOCc1cn2c(C(=O)NCC34CC5CC(CC(C5)C3)C4)cccc2n1 [Compound 127, N-(adamantan-1-ylmethyl)-2-{[2-(dimethylamino)eth-oxy]methyl}imi-dazo[1,2-a]pyridine-5-carboxamide]
IC50: < 2 µM

IC50 [5]: < 2 µM
Compound: CC(O)CNC(=O)c1cn2c(C(=O)NCC34CC5CC(CC(C5)C3)C4)cccc2n1 (centres unmarked) [Compound 86, 5-N-(adamantan-1-ylmethyl)--(2-hydroxy-propyl)imidazo[1,2-a]pyridine-2,5-dicarboxamide]
